Assay [1] deals with BRD4-BD1 (Homo sapiens (Human), UniProt O60885). The assay can be described thus: BRD4 AlphaScreen Assay (Example A2), BRD4-BD1. Type of assay: binding. The procedure, abridged:
(§1)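 Displacement of 50 nM biotinylated tetra-acetylated histone H4 peptide from BRD4 BD1 or BD2 (<1 nM) in Tris-HCl pH 7.5 buffer with DTT. Inhibitors serially diluted in DMSO, added first, then incubated 75 min in the dark at room temperature before AlphaScreen read. IC50 fitted from percent control activity versus log concentration.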

For assay [2], the target named is BRD4-BD2 (Homo sapiens (Human), UniProt O60885). The assay can be described thus: BRD4 AlphaScreen Assay (Example A2), BRD4-BD2. The settings on record: read-out: BRD4 BD-2 enzyme IC50. It is filed as binding. The procedure, abridged:
as §1

Setting [3] is: Assay A2, AlphaScreen, BRD4-BD1, read-out: BRD4 BD-1 enzyme IC50.
Where [4] appears, read: Assay A2, AlphaScreen, BRD4-BD2.

By IC50 is commonly meant the concentration that inhibits the measured activity by half.

Structures can show the parent of a compound that is named as a salt. Where two headings read alike, the source gives them in different places.

Take `CCOC(=O)/C=C/c1cc(-c2c(C)noc2C)c2c3c1[nH]c(=O)n3[C@@H](c1ccccn1)CO2` [Example 86, ethyl (2E)-3-[(4S)-7-(3,5-dimethylisoxazol-4-yl)-2-oxo-4-pyridin-2-yl-1,2,4,5-tetrahydroimidazo[1,5,4-de][1,4]benzoxazin-9-yl]acrylate 2,2,2-trifluoroacetate]: the IC50 in assay [1] (setting [3]) is 100 to 1000 nM; in assay [2] (setting [4]), less than 100 nM.

On to `Cc1noc(C)c1-c1cc(C2=CCNCC2)c2[nH]c(=O)n3c2c1OC[C@@H]3c1ccccn1` [Example 87, (4S)-7-(3,5-dimethylisoxazol-4-yl)-4-pyridin-2-yl-9-(1,2,3,6-tetrahydropyridin-4-yl)-4,5-dihydroimidazo[1,5,4-de][1,4]benzoxazin-2(1H)-one bis(2,2,2-trifluoroacetate)], for which the half-inhibitory concentration (IC50) is 100 to 1000 nM in assay [1] and less than 100 nM in assay [2].

Take `C=Cc1nc2ccc(-c3c(C)noc3C)c3c2n1[C@@H](c1ccccn1)CO3` [Example 88, (4S)-7-(3,5-Dimethylisoxazol-4-yl)-4-pyridin-2-yl-2-vinyl-4,5-dihydroimidazo[1,5,4-de][1,4]benzoxazine]: the IC50 in assay [1] (setting [3]) and in assay [2] (setting [4]) was less than 100 nM throughout.

In the case of `Cc1noc(C)c1-c1ccc2nc([C@@H](O)CO)n3c2c1OC[C@@H]3c1ccccn1` [Example 89, (1R)-1-[(4S)-7-(3,5-Dimethylisoxazol-4-yl)-4-pyridin-2-yl-4,5-dihydroimidazo[1,5,4-de][1,4]benzoxazin-2-yl]ethane-1,2-diol], the IC50 in assay [1] (setting [3]) and in assay [2] (setting [4]) was less than 100 nM in each case.

As to `Cc1noc(C)c1-c1ccc2nc(C(C)O)n3c2c1OC[C@@H]3c1ccccn1` (stereo partly drawn) [Example 90, 1-[(4S)-7-(3,5-Dimethylisoxazol-4-yl)-4-pyridin-2-yl-4,5-dihydroimidazo[1,5,4-de][1,4]benzoxazin-2-yl]ethanol], the IC50 in assay [1] (setting [3]) and in assay [2] (setting [4]) was less than 100 nM throughout.

`Cc1noc(C)c1-c1ccc2nc(C(=O)N(C)C)n3c2c1OC[C@@H]3c1ccccn1` [Example 91, (4S)-7-(3,5-Dimethylisoxazol-4-yl)-N,N-dimethyl-4-pyridin-2-yl-4,5-dihydroimidazo[1,5,4-de][1,4]benzoxazine-2-carboxamide]: the IC50 in assay [1] (setting [3]) and in assay [2] (setting [4]) was less than 100 nM each time.

`Cc1noc(C)c1-c1ccc2ncn3c2c1OC[C@@H]3c1ccccn1` [Example 92, (4S)-7-(3,5-Dimethylisoxazol-4-yl)-4-pyridin-2-yl-4,5-dihydroimidazo[1,5,4-de][1,4]benzoxazine]: the IC50 in assay [1] (setting [3]) and in assay [2] (setting [4]) was less than 100 nM each time.

For `Cc1noc(C)c1-c1ccc2nc(C(=O)OC(C)(C)C)n3c2c1OC[C@@H]3c1ccccn1` [Example 93, tert-Butyl (4S)-7-(3,5-dimethylisoxazol-4-yl)-4-pyridin-2-yl-4,5-dihydroimidazo[1,5,4-de][1,4]benzoxazine-2-carboxylate], the IC50 in assay [1] (setting [3]) and in assay [2] (setting [4]) was less than 100 nM throughout.

Regarding `Cc1noc(C)c1-c1ccc2nc(C(=O)N3CCOCC3)n3c2c1OC[C@@H]3c1ccccn1` [Example 94, (4S)-7-(3,5-Dimethylisoxazol-4-yl)-2-(morpholin-4-ylcarbonyl)-4-pyridin-2-yl-4,5-dihydroimidazo[1,5,4-de][1,4]benzoxazine], the IC50 in assay [1] (setting [3]) and in assay [2] (setting [4]) was less than 100 nM throughout.

Consider `CNC(=O)c1nc2ccc(-c3c(C)noc3C)c3c2n1[C@@H](c1ccccn1)CO3` [Example 95, (4S)-7-(3,5-Dimethylisoxazol-4-yl)-N-methyl-4-pyridin-2-yl-4,5-dihydroimidazo[1,5,4-de][1,4]benzoxazine-2-carboxamide], for which the IC50 in assay [1] (setting [3]) and in assay [2] (setting [4]) was less than 100 nM in each case.

Take `Cc1noc(C)c1-c1ccc2nc(C(N)=O)n3c2c1OC[C@@H]3c1ccccn1` [Example 96, (4S)-7-(3,5-Dimethylisoxazol-4-yl)-4-pyridin-2-yl-4,5-dihydroimidazo[1,5,4-de][1,4]benzoxazine-2-carboxamide]: the 50% inhibitory concentration (IC50) in assay [1] (setting [3]) and in assay [2] (setting [4]) was less than 100 nM throughout.

In the case of `Cc1noc(C)c1-c1ccc2nc(C3=CCN(C(=O)OC(C)(C)C)CC3)n3c2c1OC[C@@H]3c1ccccn1` [Example 97, tert-Butyl 4-[(4S)-7-(3,5-dimethylisoxazol-4-yl)-4-pyridin-2-yl-4,5-dihydroimidazo[1,5,4-de][1,4]benzoxazin-2-yl]-3,6-dihydropyridine-1(2H)-carboxylate], the IC50 in assay [1] (setting [3]) and in assay [2] (setting [4]) was less than 100 nM in each case.

For `Cc1noc(C)c1-c1ccc2nc(C3=CCN(C(=O)OC(C)(C)C)C3)n3c2c1OC[C@@H]3c1ccccn1` [Example 98, tert-Butyl 3-[(4S)-7-(3,5-dimethylisoxazol-4-yl)-4-pyridin-2-yl-4,5-dihydroimidazo[1,5,4-de][1,4]benzoxazin-2-yl]-2,5-dihydro-1H-pyrrole-1-carboxylate], the IC50 in assay [1] (setting [3]) and in assay [2] (setting [4]) was less than 100 nM throughout.

For the compound `Cc1noc(C)c1-c1ccc2nc(C3=CCCN(C(=O)OC(C)(C)C)C3)n3c2c1OC[C@@H]3c1ccccn1` [Example 99, tert-Butyl 5-[(4S)-7-(3,5-dimethylisoxazol-4-yl)-4-pyridin-2-yl-4,5-dihydroimidazo[1,5,4-de][1,4]benzoxazin-2-yl]-3,6-dihydropyridine-1(2H)-carboxylate], the IC50 in assay [1] (setting [3]) and in assay [2] (setting [4]) was less than 100 nM in each case.

Turning to `Cc1noc(C)c1-c1ccc2nc(C3CCN(C(=O)OC(C)(C)C)CC3)n3c2c1OC[C@@H]3c1ccccn1` [Example 100, tert-Butyl 4-[(4S)-7-(3,5-dimethylisoxazol-4-yl)-4-pyridin-2-yl-4,5-dihydroimidazo[1,5,4-de][1,4]benzoxazin-2-yl]piperidine-1-carboxylate], the IC50 in assay [1] (setting [3]) and in assay [2] (setting [4]) was less than 100 nM each time.

Turning to `Cc1noc(C)c1-c1ccc2nc(C3=CCNC3)n3c2c1OC[C@@H]3c1ccccn1` [Example 105, (4S)-2-(2,5-dihydro-1H-pyrrol-3-yl)-7-(3,5-dimethylisoxazol-4-yl)-4-pyridin-2-yl-4,5-dihydroimidazo[1,5,4-de][1,4]benzoxazine], the IC50 in assay [1] (setting [3]) and in assay [2] (setting [4]) was less than 100 nM each time.

As to `CC(=O)N1CCC(c2nc3ccc(-c4c(C)noc4C)c4c3n2[C@@H](c2ccccn2)CO4)CC1` [Example 109, (4S)-2-(1-Acetylpiperidin-4-yl)-7-(3,5-dimethylisoxazol-4-yl)-4-pyridin-2-yl-4,5-dihydroimidazo[1,5,4-de][1,4]benzoxazine], the IC50 in assay [1] (setting [3]) and in assay [2] (setting [4]) was less than 100 nM in each case.

In the case of `CC(=O)N1CC=C(c2nc3ccc(-c4c(C)noc4C)c4c3n2[C@@H](c2ccccn2)CO4)CC1` [Example 110, (4S)-2-(1-acetyl-1,2,3,6-tetrahydropyridin-4-yl)-7-(3,5-dimethylisoxazol-4-yl)-4-pyridin-2-yl-4,5-dihydroimidazo[1,5,4-de][1,4]benzoxazine], the IC50 in assay [1] (setting [3]) and in assay [2] (setting [4]) was less than 100 nM in each case.

For `Cc1noc(C)c1-c1ccc2nc(C3CCN(C(=O)C4CC4)CC3)n3c2c1OC[C@@H]3c1ccccn1` [Example 111, (4S)-2-[1-(cyclopropylcarbonyl)piperidin-4-yl]-7-(3,5-dimethylisoxazol-4-yl)-4-pyridin-2-yl-4,5-dihydroimidazo[1,5,4-de][1,4]benzoxazine], the IC50 in assay [1] (setting [3]) and in assay [2] (setting [4]) was less than 100 nM in each case.

For the compound `Cc1noc(C)c1-c1ccc2nc(C3CCN(S(C)(=O)=O)CC3)n3c2c1OC[C@@H]3c1ccccn1` [Example 112, (4S)-7-(3,5-dimethylisoxazol-4-yl)-2-[1-(methylsulfonyl)piperidin-4-yl]-4-pyridin-2-yl-4,5-dihydroimidazo[1,5,4-de][1,4]benzoxazine], the concentration for half-maximal inhibition (IC50) in assay [1] (setting [3]) and in assay [2] (setting [4]) was less than 100 nM in each case.

Regarding `CC(=O)N1CCC=C(c2nc3ccc(-c4c(C)noc4C)c4c3n2[C@@H](c2ccccn2)CO4)C1` [Example 116, (4S)-2-(1-acetyl-1,2,5,6-tetrahydropyridin-3-yl)-7-(3,5-dimethylisoxazol-4-yl)-4-pyridin-2-yl-4,5-dihydroimidazo[1,5,4-de][1,4]benzoxazine], the IC50 in assay [1] (setting [3]) and in assay [2] (setting [4]) was less than 100 nM each time.

On to `Cc1noc(C)c1-c1ccc2[nH]c(=O)n3c2c1CCC3c1ccccc1` (stereo not shown) [Example 120, 7-(3,5-Dimethylisoxazol-4-yl)-4-phenyl-5,6-dihydro-4H-imidazo[4,5,1-ij]quinolin-2(1H)-one], for which the IC50 in assay [1] (setting [3]) and in assay [2] (setting [4]) was less than 100 nM each time.

As for `COn1c(=O)n2c3c(c(-c4c(C)noc4C)ccc31)CCC2c1ccccn1` (stereo not shown) [Example 122, 7-(3,5-Dimethylisoxazol-4-yl)-1-methoxy-4-pyridin-2-yl-5,6-dihydro-4H-imidazo[4,5,1-ij]quinolin-2(1H)-one trifluoroacetate], the 50% inhibitory concentration (IC50) in assay [1] (setting [3]) was 100 to 1000 nM; in assay [2] (setting [4]), less than 100 nM.

Turning to `Cc1noc(C)c1-c1ccc2[nH]c(=O)n3c2c1CCC3c1ccccn1` (stereo not shown) [Example 123, 7-(3,5-Dimethylisoxazol-4-yl)-4-pyridin-2-yl-5,6-dihydro-4H-imidazo[4,5,1-ij]quinolin-2(1H)-one trifluoroacetate], the IC50 in assay [1] (setting [3]) was 100 to 1000 nM; in assay [2] (setting [4]) it was less than 100 nM.

On to `Cc1noc(CF)c1-c1ccc2[nH]c(=O)n3c2c1OCC3c1ccccn1` (stereo not shown) [Example 125, 7-[5-(Fluoromethyl)-3-methylisoxazol-4-yl]-4-pyridin-2-yl-4,5-dihydroimidazo[1,5,4-de][1,4]benzoxazin-2(1H)-one trifluoroacetate], for which the IC50 is 1000 to 10000 nM in assay [1] (setting [3]) and less than 100 nM in assay [2] (setting [4]).

Take `Cc1noc(C)c1-c1ccc2[nH]c(=O)n3c2c1OCC3c1cccnc1C(N)=O` (stereo not shown) [Example 127, 3-[7-(3,5-Dimethylisoxazol-4-yl)-2-oxo-1,2,4,5-tetrahydroimidazo[1,5,4-de][1,4]benzoxazin-4-yl]pyridine-2-carboxamide trifluoroacetate]: the IC50 in assay [1] (read-out: BRD4 BD-1 enzyme IC50) and in assay [2] was less than 100 nM in each case.

The values are drawn from patent publication US9624241B2 (Incyte Corporation, priority 2013, dated 2017).
